Values quoted from earlier work in patent publication US6552040B1, “Use of nitroxides in wound healing and in the prevention of photodamage” (priority 1999, dated 2003).

Tests used:
[1] = test system: UVB radiation-induced mouse skin damage; conditions: mice, topical solution prior to UVB exposure, versus untreated mice
[2] = in vitro and in vivo
[3] = test system: mammalian cells
[4] = test system: radiation-induced alopecia; conditions: field of heavily irradiated skin

SMILES | protection against UVB radiation skin damage [1] | further results
Cc1cc(C(C)(C)C)c(O)c(C(C)(C)C)c1 [BHT] | no significant protection | –
CC1(C)CC(O)CC(C)(C)N1[O] [Tempol, 4-hydroxy-2,2,6,6-tetramethyl-piperidinyloxy, free radical] | – | protection against ionizing radiation [2]: both in vitro and in vivo protection; protection of mammalian cells from hydrogen peroxide mediated cytotoxicity [3]: protecting mammalian cells; protection of mammalian cells from superoxide generated from hypoxanthine/xanthine oxidase ([3]; superoxide dismutase mimic): protecting mammalian cells; protection against radiation-induced alopecia [4]: speeding the recovery of hair growth
Cc1c(C)c2c(c(C)c1O)CCC(C)(C(=O)O)O2 (stereo not shown) [Trolox] | significantly less damage | –
Cc1c(C)c2c(c(C)c1O)CC[C@@](C)(CCC[C@H](C)CCC[C@H](C)CCCC(C)C)O2 [alphatocopherol] | significantly less damage | –
O=C1O[C@H]([C@@H](O)CO)C(O)=C1O [ascorbic acid] | significantly less damage | –
CC1=C(/C=C/C(C)=C/C=C/C(C)=C/C=C/C=C(C)/C=C/C=C(C)/C=C/C2=C(C)CCCC2(C)C)C(C)(C)CCC1 [beta-carotene] | no significant protection | –
C=CC(O)C(O)C=C (stereo not shown) [divinylglycol] | no significant protection | –
N[C@@H](CCC(=O)N[C@@H](CS)C(=O)NCC(=O)O)C(=O)O [glutathione] | no significant protection | –
N[C@@H](Cc1c[nH]cn1)C(=O)O [histidine] | no significant protection | –
OC[C@@H](O)[C@@H](O)[C@H](O)[C@H](O)CO [mannitol] | no significant protection | –
CC(C)(CO)[C@@H](O)C(=O)NCCC(=O)NCCS [pantetheine] | no significant protection | –
CCCOC(=O)c1cc(O)c(O)c(O)c1 [propyl galate] | significantly less damage | –
NC(N)=O [urea] | no significant protection | –
